# Measured values reported in ChEMBL document CHEMBL1201862, “PubChem BioAssay data set” (2004).
# Calls of active or inactive are those of the source.
# Tests used:
# Cytochrome P450 3A4 = Cytochrome P450 3A4 (Homo sapiens, UniProt P08684);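 also: CYP3A4 tested as one member of a cytochrome P450 panel screen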
# [1] = target: T1, RNA-binding protein pos-1 (Caenorhabditis elegans, UniProt G5EF15); assay: inhibitors of POS-1/mex-3 RNA binding, dose response, biochemical, fluorescence polarization (AID 1964);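 also: purified POS-1 fused to maltose binding protein made in E. coli; potency of compounds blocking POS-1 binding to fluorescent RNA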
# T1 sequence (G5EF15 whole entry): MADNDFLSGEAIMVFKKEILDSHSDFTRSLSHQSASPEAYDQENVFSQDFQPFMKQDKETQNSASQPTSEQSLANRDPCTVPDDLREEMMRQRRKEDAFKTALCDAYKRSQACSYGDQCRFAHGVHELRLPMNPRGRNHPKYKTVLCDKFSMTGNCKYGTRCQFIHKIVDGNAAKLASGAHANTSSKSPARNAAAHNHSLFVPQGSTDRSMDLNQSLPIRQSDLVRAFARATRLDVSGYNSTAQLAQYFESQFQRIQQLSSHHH
# Cytochrome P450 2C9 = Cytochrome P450 2C9 (Homo sapiens, UniProt P11712)
# [2] = target: T2, Zinc finger protein mex-5 (Caenorhabditis elegans, UniProt Q9XUB2); assay: MEX-5/TCR-2 RNA interaction inhibitors, dose response, biochemical, C. elegans, fluorescence polarization (AID 1960)
# T2 sequence (Q9XUB2 whole entry): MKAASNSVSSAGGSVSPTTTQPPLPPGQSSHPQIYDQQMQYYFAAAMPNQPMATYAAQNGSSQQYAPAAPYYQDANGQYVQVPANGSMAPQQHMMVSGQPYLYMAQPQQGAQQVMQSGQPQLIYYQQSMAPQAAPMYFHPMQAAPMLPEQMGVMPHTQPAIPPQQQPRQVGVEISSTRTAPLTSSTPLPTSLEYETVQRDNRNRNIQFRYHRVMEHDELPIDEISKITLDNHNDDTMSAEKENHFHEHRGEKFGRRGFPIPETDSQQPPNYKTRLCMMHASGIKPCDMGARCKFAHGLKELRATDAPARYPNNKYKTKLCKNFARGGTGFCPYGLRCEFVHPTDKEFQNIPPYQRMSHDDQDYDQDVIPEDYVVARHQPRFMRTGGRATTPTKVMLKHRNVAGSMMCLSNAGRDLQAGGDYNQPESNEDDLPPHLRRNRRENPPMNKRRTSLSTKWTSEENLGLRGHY
# [3] = target: Corticotropin-releasing factor receptor 2/Corticotropin-releasing factor-binding protein (Homo sapiens, UniProt Q13324+P24387); assay: activators of CRF receptor 2 with binding protein – uHTS hits, confirmation (AID 602473); assay type: functional; settings: read-out: EC50_Mean
# Sequence of Corticotropin-releasing factor receptor 2/Corticotropin-releasing factor-binding protein (Q13324 whole entry): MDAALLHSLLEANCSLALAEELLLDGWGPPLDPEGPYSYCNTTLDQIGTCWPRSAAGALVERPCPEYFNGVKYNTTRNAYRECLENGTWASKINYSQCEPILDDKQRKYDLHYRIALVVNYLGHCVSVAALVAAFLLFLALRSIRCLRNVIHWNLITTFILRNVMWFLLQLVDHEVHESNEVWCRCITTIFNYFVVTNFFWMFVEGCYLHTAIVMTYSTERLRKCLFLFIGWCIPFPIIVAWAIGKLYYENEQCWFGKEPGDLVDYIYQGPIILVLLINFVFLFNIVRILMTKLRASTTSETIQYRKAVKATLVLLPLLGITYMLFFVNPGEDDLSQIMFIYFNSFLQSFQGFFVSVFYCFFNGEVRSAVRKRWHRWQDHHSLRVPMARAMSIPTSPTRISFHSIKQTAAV
# Sequence of Corticotropin-releasing factor receptor 2/Corticotropin-releasing factor-binding protein (P24387 whole entry): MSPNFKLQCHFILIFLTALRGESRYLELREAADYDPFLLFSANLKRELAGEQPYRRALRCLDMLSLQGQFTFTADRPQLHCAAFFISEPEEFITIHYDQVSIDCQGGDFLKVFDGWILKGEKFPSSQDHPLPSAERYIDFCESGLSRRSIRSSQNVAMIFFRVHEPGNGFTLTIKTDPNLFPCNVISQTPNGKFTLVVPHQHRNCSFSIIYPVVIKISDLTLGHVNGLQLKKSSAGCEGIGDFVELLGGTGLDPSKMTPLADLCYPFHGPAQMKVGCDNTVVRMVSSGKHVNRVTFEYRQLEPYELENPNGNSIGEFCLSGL
# CAAX prenyl protease 2 = CAAX prenyl protease 2 (Homo sapiens, UniProt Q9Y256); assay: human Rce1 protease inhibitors, dose response, biochemical, yeast membranes, quenched-peptide fluorescence, cherry-pick (AID 588849)
# A-375 [4] = assay: MITF: Counter assay: A375 proliferation Measured in Cell-Based System Using Plate Reader - 2084-03_Inhibitor_Dose_DryPowder_Activity. [Related pubchem assays (depositor defined):AID488944]; assay type: functional; settings: Homo sapiens
# [5] = Luminescence Cell-Based Dose Retest to Confirm Inhibitors of Cancer Stem Cells. [Related pubchem assays (depositor defined):AID2717, AID2721]; assay type: functional; settings: Homo sapiens
# [6] = target: T3, Microphthalmia-associated transcription factor (Homo sapiens, UniProt O75030); assay: TRPM1 promoter luciferase signal decrease, dose response, MITF inhibitor project, cell-based, SK-MEL-5, cherry-picked, set 3 (AID 493073); assay type: functional
# T3 sequence (O75030 whole entry): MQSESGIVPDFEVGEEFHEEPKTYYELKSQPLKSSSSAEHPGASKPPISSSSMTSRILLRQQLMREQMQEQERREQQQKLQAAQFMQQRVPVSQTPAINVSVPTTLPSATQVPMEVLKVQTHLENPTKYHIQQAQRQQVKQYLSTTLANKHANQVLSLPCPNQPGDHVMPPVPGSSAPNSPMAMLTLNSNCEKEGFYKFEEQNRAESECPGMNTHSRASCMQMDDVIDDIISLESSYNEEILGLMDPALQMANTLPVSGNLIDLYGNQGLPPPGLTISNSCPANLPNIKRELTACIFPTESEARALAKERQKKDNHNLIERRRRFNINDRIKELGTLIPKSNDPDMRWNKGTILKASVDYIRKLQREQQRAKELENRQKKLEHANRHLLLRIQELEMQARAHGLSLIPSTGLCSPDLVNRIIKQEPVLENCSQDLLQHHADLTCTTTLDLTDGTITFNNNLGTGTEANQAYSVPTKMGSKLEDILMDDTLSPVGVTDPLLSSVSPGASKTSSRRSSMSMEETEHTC
# [7] = cytotoxicity toward NIH3T3 fibroblasts, dose response, counter-screen, cell-based, ATP luminescence, mouse fibroblasts (AID 2010); assay type: functional;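 also: cells exposed to compound for about 90 hours before reading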
# A-375 [8] = assay: A375 melanoma cell viability reduction, dose response, counter-screen for MITF modulator project, cherry-pick samples, set 2 (AID 540335); assay type: functional, cell-based; settings: Homo sapiens
# [9] = Shn3 3'UTR reporter inhibitors, dose response, cell-based, Clone20 osteoblasts, firefly luciferase, cherry-picked (AID 624132); assay type: functional;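 also: firefly luciferase luminescence from reporter carrying the Shn3 3'UTR in osteoblasts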
# [10] = control 3'UTR Renilla luciferase suppression, dose response, counter-screen for Shn3 inhibitor project, cell-based, Clone20-Shn3RL, cherry-picked (AID 624133); assay type: functional
# [11] = inhibitors of intracellular T. cruzi replication, confirmation, NIH3T3 host cells, beta-gal luminescence (AID 2044); assay type: functional, cell-based;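 also: intracellular parasites grown in NIH/3T3 mouse fibroblasts as host cells; luminescent beta-galactosidase reporter signal from transgenic T. cruzi replicating inside host cells; inhibitors lower the luminescence signal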
# [12] = HepG2 cell cytotoxicity, dose response, cytotoxicity control for Shn3 inhibitor project, CellTiter-Glo, cherry-picked (AID 624134); assay type: functional, cell-based
# Phospholipase D2 = Phospholipase D2 (Homo sapiens, UniProt O14939); assay: PLD2 inhibitor potency in cells, dose response (AID 602147); assay type: functional;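 also: cellular assay in HEK293 cells overexpressing GFP-tagged PLD2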
# Phospholipase D1 = Phospholipase D1 (Homo sapiens, UniProt Q13393); assay: PLD1 inhibitor potency in cells, dose response (AID 602151); assay type: functional;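 also: cellular PLD1 assay in Calu-1 cells stimulated with PMA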
# Sequence of Phospholipase D1 (Q13393 whole entry): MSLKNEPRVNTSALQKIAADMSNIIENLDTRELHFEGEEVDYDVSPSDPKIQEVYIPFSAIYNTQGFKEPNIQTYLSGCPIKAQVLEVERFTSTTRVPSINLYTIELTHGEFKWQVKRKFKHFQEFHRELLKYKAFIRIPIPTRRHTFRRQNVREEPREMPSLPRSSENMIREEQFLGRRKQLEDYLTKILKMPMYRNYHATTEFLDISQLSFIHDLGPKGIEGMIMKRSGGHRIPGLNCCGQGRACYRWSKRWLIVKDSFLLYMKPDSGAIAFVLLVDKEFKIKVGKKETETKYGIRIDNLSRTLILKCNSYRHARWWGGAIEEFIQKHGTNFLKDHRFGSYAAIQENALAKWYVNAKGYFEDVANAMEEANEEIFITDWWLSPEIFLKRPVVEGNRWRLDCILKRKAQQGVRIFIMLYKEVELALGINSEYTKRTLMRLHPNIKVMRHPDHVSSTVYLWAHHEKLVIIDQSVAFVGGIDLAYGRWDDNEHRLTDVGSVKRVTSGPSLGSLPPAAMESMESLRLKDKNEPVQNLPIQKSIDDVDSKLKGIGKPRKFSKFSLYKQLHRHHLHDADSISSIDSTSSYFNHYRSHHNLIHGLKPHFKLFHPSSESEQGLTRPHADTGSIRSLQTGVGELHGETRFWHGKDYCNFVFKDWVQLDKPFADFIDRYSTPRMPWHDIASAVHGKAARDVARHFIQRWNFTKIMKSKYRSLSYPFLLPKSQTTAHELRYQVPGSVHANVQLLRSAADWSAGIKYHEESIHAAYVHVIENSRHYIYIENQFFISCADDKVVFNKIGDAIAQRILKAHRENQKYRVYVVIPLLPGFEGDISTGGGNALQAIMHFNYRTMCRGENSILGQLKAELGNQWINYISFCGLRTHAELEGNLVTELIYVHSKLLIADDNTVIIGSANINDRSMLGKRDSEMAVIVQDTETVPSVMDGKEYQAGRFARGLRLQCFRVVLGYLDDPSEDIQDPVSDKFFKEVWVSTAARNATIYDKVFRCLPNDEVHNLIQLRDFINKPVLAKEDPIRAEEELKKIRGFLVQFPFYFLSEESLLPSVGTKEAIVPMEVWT
# Aurora kinase B = Aurora kinase B (Homo sapiens, UniProt Q96GD4); assay type: functional
# Sequence of Aurora kinase B (Q96GD4 whole entry): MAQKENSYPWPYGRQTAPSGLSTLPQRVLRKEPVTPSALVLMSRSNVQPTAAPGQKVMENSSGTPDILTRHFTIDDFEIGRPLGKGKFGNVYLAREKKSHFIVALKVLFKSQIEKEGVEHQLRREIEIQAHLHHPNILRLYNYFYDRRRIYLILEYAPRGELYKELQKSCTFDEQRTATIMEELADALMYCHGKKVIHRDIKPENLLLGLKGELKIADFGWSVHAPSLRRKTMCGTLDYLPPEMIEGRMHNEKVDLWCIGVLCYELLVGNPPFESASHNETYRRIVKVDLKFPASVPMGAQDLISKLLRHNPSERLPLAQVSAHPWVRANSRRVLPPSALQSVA
# [13] = target: Calcium/calmodulin-dependent protein kinase type II subunit gamma (Homo sapiens, UniProt Q13555); assay type: functional
# [14] = target: Calcium/calmodulin-dependent protein kinase type II subunit beta (Homo sapiens, UniProt Q13554); assay type: functional
# [15] = target: Protein kinase C delta type (Homo sapiens, UniProt Q05655); assay type: functional
# [16] = target: Cell division cycle 7-related protein kinase (Homo sapiens, UniProt O00311); assay type: functional;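 also: value obtained from a kinome-wide kinase panel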
# [17] = target: Serine/threonine-protein kinase pim-1 (Homo sapiens, UniProt P11309); assay type: functional
# [18] = target: Mitogen-activated protein kinase kinase kinase kinase 4 (Homo sapiens, UniProt O95819); assay type: functional
# Sequence of Mitogen-activated protein kinase kinase kinase kinase 4 (O95819 whole entry): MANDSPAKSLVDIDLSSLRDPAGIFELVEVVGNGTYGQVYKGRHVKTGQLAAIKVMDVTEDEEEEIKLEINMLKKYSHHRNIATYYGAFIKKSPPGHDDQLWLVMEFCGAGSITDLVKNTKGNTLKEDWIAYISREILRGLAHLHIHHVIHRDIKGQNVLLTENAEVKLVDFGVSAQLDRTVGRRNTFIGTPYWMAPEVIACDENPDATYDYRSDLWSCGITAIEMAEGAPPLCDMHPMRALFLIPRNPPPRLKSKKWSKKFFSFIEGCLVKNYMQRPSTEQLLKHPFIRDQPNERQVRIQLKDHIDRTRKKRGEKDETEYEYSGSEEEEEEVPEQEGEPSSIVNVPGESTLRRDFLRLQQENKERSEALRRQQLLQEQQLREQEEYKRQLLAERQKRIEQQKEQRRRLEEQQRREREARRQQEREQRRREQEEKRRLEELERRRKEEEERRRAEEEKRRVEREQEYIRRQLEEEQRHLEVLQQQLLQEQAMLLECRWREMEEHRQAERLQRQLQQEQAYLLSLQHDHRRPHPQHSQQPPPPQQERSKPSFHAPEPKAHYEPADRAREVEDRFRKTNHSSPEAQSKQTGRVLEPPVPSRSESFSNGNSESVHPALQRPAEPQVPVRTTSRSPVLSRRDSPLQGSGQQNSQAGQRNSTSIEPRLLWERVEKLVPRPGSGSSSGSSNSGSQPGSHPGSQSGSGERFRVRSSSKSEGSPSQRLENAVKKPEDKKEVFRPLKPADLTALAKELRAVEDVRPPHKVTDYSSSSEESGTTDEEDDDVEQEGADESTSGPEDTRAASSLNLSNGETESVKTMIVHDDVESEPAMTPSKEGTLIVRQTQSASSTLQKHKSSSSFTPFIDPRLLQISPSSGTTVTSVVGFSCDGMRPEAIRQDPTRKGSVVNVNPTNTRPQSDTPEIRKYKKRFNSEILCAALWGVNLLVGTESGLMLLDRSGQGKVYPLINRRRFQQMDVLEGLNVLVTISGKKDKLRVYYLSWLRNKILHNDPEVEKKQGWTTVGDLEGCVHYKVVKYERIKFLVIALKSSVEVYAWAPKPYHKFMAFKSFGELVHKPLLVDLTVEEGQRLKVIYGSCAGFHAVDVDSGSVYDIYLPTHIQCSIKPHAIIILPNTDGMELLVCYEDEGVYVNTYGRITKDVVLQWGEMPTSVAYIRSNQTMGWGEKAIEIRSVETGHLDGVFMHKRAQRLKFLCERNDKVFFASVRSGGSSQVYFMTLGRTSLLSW
# [19] = target: Glycogen synthase kinase-3 beta (Homo sapiens, UniProt P49841); assay type: functional;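 also: value comes from a broad kinome profiling panel, with GSK3B as the panel member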
# [20] = target: Homeodomain-interacting protein kinase 2 (Homo sapiens, UniProt Q9H2X6); assay type: functional;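 also: measured within a kinome-wide kinase profiling panel, HIPK2 being one panel member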
# Sequence of Homeodomain-interacting protein kinase 2 (Q9H2X6 whole entry): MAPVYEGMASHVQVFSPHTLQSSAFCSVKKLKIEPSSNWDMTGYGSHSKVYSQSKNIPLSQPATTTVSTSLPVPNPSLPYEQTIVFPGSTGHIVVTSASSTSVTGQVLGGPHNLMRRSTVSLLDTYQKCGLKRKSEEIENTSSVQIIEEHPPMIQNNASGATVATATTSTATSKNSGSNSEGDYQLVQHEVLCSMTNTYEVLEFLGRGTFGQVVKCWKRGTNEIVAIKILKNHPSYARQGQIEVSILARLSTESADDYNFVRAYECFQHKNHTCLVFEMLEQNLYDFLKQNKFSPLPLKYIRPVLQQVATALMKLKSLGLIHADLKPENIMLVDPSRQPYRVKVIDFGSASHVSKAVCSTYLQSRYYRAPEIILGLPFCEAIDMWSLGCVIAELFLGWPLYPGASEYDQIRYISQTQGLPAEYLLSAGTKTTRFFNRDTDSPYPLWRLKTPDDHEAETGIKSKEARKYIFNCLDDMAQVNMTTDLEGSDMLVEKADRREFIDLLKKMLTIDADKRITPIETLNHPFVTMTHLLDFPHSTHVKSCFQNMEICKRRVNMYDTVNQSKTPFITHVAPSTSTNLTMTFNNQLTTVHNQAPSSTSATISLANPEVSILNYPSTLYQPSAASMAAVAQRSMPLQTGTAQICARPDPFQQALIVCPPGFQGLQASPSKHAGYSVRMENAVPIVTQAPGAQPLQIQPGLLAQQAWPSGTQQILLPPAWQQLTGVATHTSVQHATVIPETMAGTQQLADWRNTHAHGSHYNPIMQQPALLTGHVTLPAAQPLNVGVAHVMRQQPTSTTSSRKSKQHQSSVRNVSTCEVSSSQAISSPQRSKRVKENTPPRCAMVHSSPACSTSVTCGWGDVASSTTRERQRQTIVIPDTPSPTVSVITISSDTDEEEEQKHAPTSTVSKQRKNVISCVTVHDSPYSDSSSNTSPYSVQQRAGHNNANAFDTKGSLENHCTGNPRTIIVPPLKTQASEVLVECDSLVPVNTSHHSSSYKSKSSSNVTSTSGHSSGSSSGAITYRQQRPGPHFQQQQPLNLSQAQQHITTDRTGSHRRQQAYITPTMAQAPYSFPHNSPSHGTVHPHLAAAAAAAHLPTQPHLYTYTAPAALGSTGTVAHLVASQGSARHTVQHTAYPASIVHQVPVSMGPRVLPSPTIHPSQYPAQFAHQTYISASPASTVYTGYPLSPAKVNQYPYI
# [21] = target: Dual specificity protein kinase CLK4 (Homo sapiens, UniProt Q9HAZ1); assay type: functional
# [22] = target: Interleukin-1 receptor-associated kinase 4 (Homo sapiens, UniProt Q9NWZ3); assay type: functional
# [23] = target: cAMP-dependent protein kinase catalytic subunit alpha (Homo sapiens, UniProt P17612); assay type: functional
# [24] = target: T4, V-type proton ATPase subunit c' (Saccharomyces cerevisiae S288c, UniProt P32842); assay: Dose Response of Small Molecules that Regulate V-ATPase Proton Transport in Yeast using pHLuorin, Powder Set1.; assay type: functional; settings: read-out: EC50_MICROM
# T4 sequence (P32842 whole entry): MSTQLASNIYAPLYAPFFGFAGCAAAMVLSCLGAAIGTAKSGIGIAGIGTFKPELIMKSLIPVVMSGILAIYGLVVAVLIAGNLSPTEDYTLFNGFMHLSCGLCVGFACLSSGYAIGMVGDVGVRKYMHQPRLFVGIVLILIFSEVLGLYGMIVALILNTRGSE
# [25] = target: T4, V-type proton ATPase subunit c'; assay: Dose Response with BCECF Assay for V-ATPase inhibitors that increase vacuolar pH, Powder Set 1.; assay type: functional; settings: read-out: EC50_MICROM
compound,measurement,setting,value
CCCCC1(C)OC(=O)C(=Cc2ccc(N(CC)CC)cc2)C(=O)O1 (stereo unspecified),AC50,Cytochrome P450 3A4,126 nM (inconclusive)
same,EC50,[1],> 300 µM (not active)
same,AC50,Cytochrome P450 2C9,inconclusive
same,EC50,[2],> 300 µM (not active)
same,EC50,[3],7.59 µM (active)
Oc1ncccc1-c1nc2ccccc2n1Cc1cccc(Cl)c1,AC50,CAAX prenyl protease 2,5.23 µM (active)
Cc1ccccc1C(=O)N1CCN(c2ccc(NC(=O)c3ccc([N+](=O)[O-])o3)cc2)CC1,AC50,A-375 [4],> 35 µM (active)
same,AC50,[5],1.8 µM (active)
same,AC50,[6],6.2 µM (active)
same,EC50,[7],3.84 µM (active)
same,AC50,A-375 [8],> 35 µM (active)
same,AC50,[9],864 nM (active)
same,AC50,[10],9.76 µM (active)
same,EC50,[11],3.14 µM (active)
same,AC50,[12],20.5 µM (active)
C[C@@H](CN1CCC(n2c(=O)[nH]c3ccc(F)cc32)CC1)NC(=O)c1ccc(F)cc1,IC50,Phospholipase D2,300 nM (active)
same,IC50,Phospholipase D1,2 nM (active)
Cc1cc(C(=O)NCCOCCOCCN)ccc1-c1cccc2c(CCCOc3cccc4ccccc34)c(C(=O)O)[nH]c12,Ki,Aurora kinase B,3.98 µM (active)
same,Ki,[13],3.98 µM (active)
same,Ki,[14],5.01 µM (active)
same,Ki,[15],2.51 µM (active)
CC(C)(C)Oc1cc(-c2ccncc2)cc2[nH]nc(N)c12,Ki,[16],2.51 nM (active)
same,Ki,[17],1.58 µM (active)
same,Ki,[18],251 nM (active)
same,Ki,[19],631 nM (active)
same,Ki,[20],398 nM (active)
same,Ki,[21],12.6 nM (active)
same,Ki,[22],251 nM (active)
same,Ki,[23],158 nM (active)
COc1ccccc1N1CCN(C(=O)c2ccc([N+](=O)[O-])o2)CC1,EC50,[24],40.5 µM (active)
same,EC50,[25],24.3 µM (active)
